In patent publication US20240254547A1, “HIGHLY ACCURATE […]” (KAO CORPORATION, priority 2018, published 2024):

Legend:
gpt gene = assay: gpt-assay, gene mutation frequency (OECD TG488); assay type: in vivo, mouse (C57BL/6JJmsSlc-Tg (gpt delta)); settings: bone marrow
Procedure: (§1) Male TG mice which were 7 to 9 weeks old at initiation of administration were used. ENU (produced by Toronto Research Chemicals, Inc.) was dissolved in saline to a concentration of 15.0 mg/mL. By using a plastic syringe and a 25 G injection needle, […] was intraperitoneally administered to the mice once per day (ENU 150 mg/kg/day) for 5 days (ENU group). Saline was administered to a control group. Seven days after the final administration, the animals were each euthanized to resect the femur, and genomic DNA was extracted from the bone marrow by using a REcoverEase DNA Isolation Kit (produced by Agilent Technologies) in accordance with the recommended protocol. The double-stranded DNA concentration of the resulting DNA was measured by using a Qubit3.0 Fluorometer (produced by Thermo Fisher Scientific) with a Qubit™ dsDNA BR Assay Kit attached thereto.
DNA was extracted from the bone marrow of each of the mice obtained in 1) by using phenol/chloroform. For the extract DNA, gene mutation frequency was calculated by using the gpt gene introduced into each TG mouse in accordance with OECD Guidelines for the Testing of Chemicals 488 (OECD TG488) (gpt-assay). […] From the number of colonies formed on the selective medium (mutant colonies) and the number of colonies formed on the medium for titer determination (total colonies), mutation frequency (*10^−6) was calculated. […]

[1] = system: genomic DNA from the bone marrow of TG mouse; assay: Mutation analysis of mouse bone marrow genomic DNA by sequencing with information on complementary strands; assay type: in vivo, mouse (C57BL/6JJmsSlc-Tg (gpt delta)); settings: ENU 150 mg/kg/day intraperitoneally for 5 days, n=2
Procedure: as §1, with “thereto. […]” for “thereto.”
Each of the libraries prepared in 3) was subjected to sequencing by using a HiSeq 2500 (produced by Illumina, Inc.), where the read length was set to 2*100 bp. […]
Edit of raw read sequences acquired through sequencing, extraction of information on complementary strands, and mutation analysis were performed by using the procedure of 5) in Example 2 in accordance with the analysis flow illustrated above in Schematic Diagrams 3 and 4. […]

SMILES: CCN(N=O)C(N)=O [ENU, ethylnitrosourea]
- Mean Mutant Frequency (gpt-assay) (gpt gene; ENU 150 mg/kg/day intraperitoneally for 5 days, n=4): 126.33 *10^−6
- Gene mutation frequency (gpt-assay) versus control group (gpt gene; ENU 150 mg/kg/day): Significant increase
- Frequencies of A:T>T:A, A:T>G:C, and G:C>A:T versus control group [1]: significantly higher
